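Interpolation was linear, between the two tested concentrations surrounding the appropriate level; five concentrations were tested over 48 hours in 96-well plates. GI50 = concentration required for 50% inhibition of growth.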 Active and inactive are the calls of the source. No stated cut-off is given here; in the data, active = GI50 up to about 1.1 µM and inactive = higher.
Tests used:
Experiment in all cases: NCI-60 cell line screen, 48 h
HCC 2998 = tested on: HCC 2998
HT-29 = tested on: HT-29
SK-MEL-2 = tested on: SK-MEL-2
OVCAR-4 = tested on: OVCAR-4
NCI-H23 = tested on: NCI-H23
SN12C = tested on: SN12C
UACC-257 = tested on: UACC-257
EKVX = tested on: EKVX
SNB-75 = tested on: SNB-75
OVCAR-5 = tested on: OVCAR-5
OVCAR-8 = tested on: OVCAR-8
CAKI-1 = tested on: CAKI-1
RXF 631 = tested on: RXF 631
COLO 205 = tested on: COLO 205
HOP-62 = tested on: HOP-62
M14 = tested on: M14
TK-10 = tested on: TK-10
KM12 = tested on: KM12
T47D = tested on: T47D
MDA-N = tested on: MDA-N

Measured: GI50

S=C(Nc1ccccc1)Nc1[nH]c(=S)sc1-c1nc2ccccc2[nH]1
inactive: HCC 2998 > 100 µM | HT-29 > 100 µM | SK-MEL-2 38.4 µM | OVCAR-4 15.2 µM | NCI-H23 > 100 µM | SN12C > 100 µM | UACC-257 > 100 µM | EKVX 75.9 µM | SNB-75 38.5 µM | OVCAR-5 > 100 µM | OVCAR-8 48.8 µM | CAKI-1 94 µM | RXF 631 65.6 µM | COLO 205 > 100 µM | HOP-62 23.1 µM | M14 49.8 µM | TK-10 40.1 µM | KM12 > 100 µM

C[N+](C)(C)CC(CC(=O)[O-])C1CC1 (stereo unspecified)
inactive: HT-29 > 100 µM | SK-MEL-2 > 100 µM | OVCAR-4 > 100 µM | NCI-H23 > 100 µM | SN12C > 100 µM | UACC-257 > 100 µM | EKVX > 100 µM | SNB-75 > 100 µM | OVCAR-5 > 100 µM | OVCAR-8 > 100 µM | CAKI-1 > 100 µM | RXF 631 > 100 µM | COLO 205 > 100 µM | HOP-62 > 100 µM | M14 > 100 µM | TK-10 > 100 µM | KM12 > 100 µM

Clc1cccc2c1OCC1C(c3ccccc3)=NN(c3ccccc3)C21 (stereo unspecified)
inactive: HCC 2998 > 100 µM | HT-29 83.9 µM | SK-MEL-2 > 100 µM | NCI-H23 > 100 µM | UACC-257 67.3 µM | EKVX 40.1 µM | SNB-75 > 100 µM | OVCAR-5 > 100 µM | OVCAR-8 81.8 µM | RXF 631 > 100 µM | COLO 205 > 100 µM | HOP-62 > 100 µM | TK-10 > 100 µM | KM12 87.1 µM

COc1ccc(-c2cc(O)c3ccc(F)cc3n2)cc1
inactive: HCC 2998 > 100 µM | HT-29 > 100 µM | OVCAR-4 > 100 µM | NCI-H23 > 100 µM | SN12C > 100 µM | UACC-257 > 100 µM | EKVX > 100 µM | SNB-75 > 100 µM | OVCAR-5 > 100 µM | OVCAR-8 > 100 µM | RXF 631 > 100 µM | COLO 205 > 100 µM | HOP-62 > 100 µM | M14 > 100 µM | TK-10 > 100 µM | KM12 77.4 µM

C/C(CC(=O)Nc1cc(C)ccc1C)=N\NC(=O)c1ccncc1
inactive: HCC 2998 > 100 µM | HT-29 > 100 µM | SK-MEL-2 > 100 µM | NCI-H23 > 100 µM | UACC-257 > 100 µM | EKVX > 100 µM | SNB-75 > 100 µM | OVCAR-5 > 100 µM | OVCAR-8 > 100 µM | RXF 631 > 100 µM | COLO 205 > 100 µM | HOP-62 > 100 µM | M14 > 100 µM | TK-10 > 100 µM | KM12 > 100 µM

COc1cc(C(O)C(=O)c2cnc3cc([N+](=O)[O-])ccc3n2)ccc1O (stereo unspecified)
inactive: HCC 2998 > 100 µM | HT-29 > 100 µM | SK-MEL-2 > 100 µM | OVCAR-4 > 100 µM | SN12C > 100 µM | UACC-257 > 100 µM | EKVX 72.3 µM | SNB-75 > 100 µM | OVCAR-8 > 100 µM | CAKI-1 > 100 µM | RXF 631 > 100 µM | COLO 205 > 100 µM | HOP-62 85.5 µM | M14 > 100 µM | TK-10 > 100 µM | KM12 > 100 µM

Cc1ccnc(NS(=O)(=O)c2ccc(NC(=O)c3ccc4nc5ccccc5c(Nc5ccc(S(=O)(=O)Nc6nccc(C)n6)cc5)c4c3)cc2)n1
inactive: HCC 2998 37.2 µM | HT-29 > 100 µM | SK-MEL-2 16 µM | T47D 30.8 µM | OVCAR-4 52.4 µM | NCI-H23 > 100 µM | MDA-N 62.4 µM | SN12C 60.3 µM | UACC-257 > 100 µM | EKVX > 100 µM | SNB-75 50.4 µM | OVCAR-5 > 100 µM | OVCAR-8 > 100 µM | CAKI-1 > 100 µM | COLO 205 > 100 µM | HOP-62 > 100 µM | M14 > 100 µM | TK-10 > 100 µM | KM12 29 µM

COC(=O)C1=C2Nc3ccccc3C23CCN2C(O)C4(CC5CC67CCOC6CCN6CCC8(c9cccc(OC)c9N(C4)C58O)C67)C4OCCC4(C1)C23 (stereo unspecified)
inactive: HCC 2998 > 100 µM | HT-29 > 100 µM | SK-MEL-2 84.1 µM | T47D 20.3 µM | OVCAR-4 61.9 µM | NCI-H23 > 100 µM | MDA-N 98.2 µM | SN12C 79.8 µM | UACC-257 > 100 µM | EKVX 52.8 µM | SNB-75 23.5 µM | OVCAR-5 > 100 µM | OVCAR-8 23.5 µM | CAKI-1 25.2 µM | COLO 205 > 100 µM | HOP-62 44.2 µM | M14 71.9 µM | TK-10 > 100 µM | KM12 78.9 µM

Cc1ccc(S(=O)(=O)N(CC(O)COc2ccccc2)c2ccc(F)cc2F)cc1 (stereo unspecified)
inactive: HCC 2998 14.1 µM | HT-29 14.9 µM | SK-MEL-2 15.5 µM | T47D 17.2 µM | OVCAR-4 11.6 µM | NCI-H23 13.9 µM | MDA-N 15.5 µM | SN12C 15.3 µM | UACC-257 17.9 µM | EKVX 14.7 µM | SNB-75 14.8 µM | OVCAR-5 18.1 µM | OVCAR-8 17.3 µM | CAKI-1 12.2 µM | COLO 205 15.3 µM | HOP-62 15.5 µM | M14 17.3 µM | TK-10 21.5 µM | KM12 20 µM

COC1=C(C)C(=O)C2C(C1=O)C(c1ccc(OC)c(OC)c1)[C@H]2C (stereo partly specified)
inactive: HCC 2998 > 100 µM | HT-29 > 100 µM | SK-MEL-2 > 100 µM | OVCAR-4 > 100 µM | NCI-H23 > 100 µM | EKVX > 100 µM | SNB-75 72.8 µM | OVCAR-5 > 100 µM | OVCAR-8 > 100 µM | CAKI-1 > 100 µM | RXF 631 > 100 µM | COLO 205 > 100 µM | HOP-62 > 100 µM | M14 > 100 µM | TK-10 > 100 µM | KM12 > 100 µM

O=C(c1ccncc1)n1nc(-c2ccccc2)c(/N=N/c2ccccc2[N+](=O)[O-])c1-c1ccccc1
inactive: HCC 2998 34.7 µM | HT-29 26.2 µM | SK-MEL-2 > 100 µM | OVCAR-4 > 100 µM | NCI-H23 30 µM | SN12C > 100 µM | UACC-257 40.8 µM | EKVX 9.04 µM | SNB-75 15.7 µM | OVCAR-8 56.1 µM | CAKI-1 63.8 µM | RXF 631 38.5 µM | COLO 205 > 100 µM | HOP-62 38.3 µM | M14 > 100 µM | TK-10 67.9 µM | KM12 19.3 µM

Reference: ChEMBL document CHEMBL1201862, “PubChem BioAssay data set” (2004)
